{"source": "paper PMC5218480", "about": "(PLoS ONE, 2017)", "tested_on": "MV-4-11 cells", "test": "Gene expression microarray analysis (Affymetrix PrimeView) and GSEA", "type": "cell-based, human", "parameters": "RFU PODN (11730768_x_at) / Fold change /veh PODN (11730768_x_at) / RFU LINC00158 (11744669_a_at) / Fold change /veh LINC00158 (11744669_a_at) / RFU DUSP10 (11751237_a_at) / Fold change /veh DUSP10 (11751237_a_at) / RFU ID3 (11757404_x_at) / Fold change /veh ID3 (11757404_x_at) / RFU PLEKHG5 (11737974_s_at) / Fold change /veh PLEKHG5 (11737974_s_at) / RFU LRRC4B (11730491_at) / Fold change /veh LRRC4B (11730491_at) / RFU GIMAP4 (11747438_a_at) / Fold change /veh GIMAP4 (11747438_a_at) / RFU KRT8 (11758183_x_at) / Fold change /veh KRT8 (11758183_x_at) / RFU CNN1 (11734310_a_at) / Fold change /veh CNN1 (11734310_a_at) / RFU VPS37D (11726825_at) / Fold change /veh VPS37D (11726825_at) / RFU C10orf10 (11716522_x_at) / Fold change /veh C10orf10 (11716522_x_at) / RFU KIR2DL2 /// KIR2DL4 /// KIR2DL5A /// KIR2DL5B /// KIR2DS1 /// KIR2DS2 /// KIR2DS3 /// KIR2DS4 /// KIR3DL3 /// KIR3DL3 /// KIR3DS1 (11738374_at) / Fold change /veh KIR2DL2 /// KIR2DL4 /// KIR2DL5A /// KIR2DL5B /// KIR2DS1 /// KIR2DS2 /// KIR2DS3 /// KIR2DS4 /// KIR3DL3 /// KIR3DL3 /// KIR3DS1 (11738374_at) / RFU C1QL1 (11718748_at) / Fold change /veh C1QL1 (11718748_at) / RFU TMPRSS4 (11747572_a_at) / Fold change /veh TMPRSS4 (11747572_a_at) / RFU HAMP (11756126_x_at) / Fold change /veh HAMP (11756126_x_at) / RFU RNFT2 (11725882_a_at) / Fold change /veh RNFT2 (11725882_a_at) / RFU NR4A2 (11747474_a_at) / Fold change /veh NR4A2 (11747474_a_at) / RFU ABCC12 (11746883_a_at) / Fold change /veh ABCC12 (11746883_a_at) / RFU TMEM136 (11760407_x_at) / Fold change /veh TMEM136 (11760407_x_at) / RFU CLDN22 /// WWC2 (11732394_at) / Fold change /veh CLDN22 /// WWC2 (11732394_at) / RFU HLA-DPB1 (11760878_x_at) / Fold change /veh HLA-DPB1 (11760878_x_at) / RFU SPINT1 (11716480_a_at) / Fold change /veh SPINT1 (11716480_a_at) / RFU GAP43 (11754022_s_at) / Fold change /veh GAP43 (11754022_s_at) / RFU A4GNT (11735810_at) / Fold change /veh A4GNT (11735810_at) / RFU PRB3 (11715151_x_at) / Fold change /veh PRB3 (11715151_x_at) / RFU TUBB4B (11761932_at) / Fold change /veh TUBB4B (11761932_at) / RFU CAPN14 (11732068_a_at) / Fold change /veh CAPN14 (11732068_a_at) / RFU TMCC2 (11721928_a_at) / Fold change /veh TMCC2 (11721928_a_at) / RFU IRGQ (11745062_a_at) / Fold change /veh IRGQ (11745062_a_at) / RFU FAM174B (11720279_a_at) / Fold change /veh FAM174B (11720279_a_at) / RFU TMPRSS4 (11748680_a_at) / Fold change /veh TMPRSS4 (11748680_a_at) / RFU FAM212B (11763350_a_at) / Fold change /veh FAM212B (11763350_a_at) / RFU PLEKHG5 (11743358_a_at) / Fold change /veh PLEKHG5 (11743358_a_at) / RFU ZSCAN30 (11745921_a_at) / Fold change /veh ZSCAN30 (11745921_a_at) / RFU CMKLR1 (11741424_a_at) / Fold change /veh CMKLR1 (11741424_a_at) / RFU LOC101060620 /// MAPK8IP1 (11723275_at) / Fold change /veh LOC101060620 /// MAPK8IP1 (11723275_at) / RFU SPTSSB (11747773_x_at) / Fold change /veh SPTSSB (11747773_x_at) / RFU PRSS12 (11739890_at) / Fold change /veh PRSS12 (11739890_at) / RFU BIN1 (11741810_x_at) / Fold change /veh BIN1 (11741810_x_at) / RFU WNT11 (11732464_a_at) / Fold change /veh WNT11 (11732464_a_at) / RFU C10orf10 (11716521_a_at) / Fold change /veh C10orf10 (11716521_a_at) / RFU C5orf56 (11738089_at) / Fold change /veh C5orf56 (11738089_at) / RFU CYB561 (11721691_x_at) / Fold change /veh CYB561 (11721691_x_at) / RFU ANKRD19P (11752326_a_at) / Fold change /veh ANKRD19P (11752326_a_at) / RFU OR2T12 /// OR2T33 /// OR2T8 (11738714_s_at) / Fold change /veh OR2T12 /// OR2T33 /// OR2T8 (11738714_s_at) / RFU VCAN (11748164_a_at) / Fold change /veh VCAN (11748164_a_at) / RFU JSRP1 (11732532_at) / Fold change /veh JSRP1 (11732532_at) / RFU KRTAP10-11 (11738290_x_at) / Fold change /veh KRTAP10-11 (11738290_x_at) / RFU MYO3A (11730013_a_at) / Fold change /veh MYO3A (11730013_a_at) / RFU EBF3 (11725865_a_at) / Fold change /veh EBF3 (11725865_a_at) / RFU CAMK2N1 (11719241_x_at) / Fold change /veh CAMK2N1 (11719241_x_at) / RFU C5orf56 (11738088_a_at) / Fold change /veh C5orf56 (11738088_a_at) / RFU OLFML3 (11715873_a_at) / Fold change /veh OLFML3 (11715873_a_at) / RFU LOC100653217 /// NTM (11731650_a_at) / Fold change /veh LOC100653217 /// NTM (11731650_a_at) / RFU MAPK11 (11762145_a_at) / Fold change /veh MAPK11 (11762145_a_at) / RFU FIZ1 (11724087_x_at) / Fold change /veh FIZ1 (11724087_x_at) / RFU OASL (11726364_x_at) / Fold change /veh OASL (11726364_x_at) / RFU SOX15 (11748057_x_at) / Fold change /veh SOX15 (11748057_x_at) / RFU CD79A (11719716_a_at) / Fold change /veh CD79A (11719716_a_at) / RFU HIST1H1D (11736915_at) / Fold change /veh HIST1H1D (11736915_at) / RFU CASKIN2 (11723855_a_at) / Fold change /veh CASKIN2 (11723855_a_at) / RFU LOC730098 (11760151_x_at) / Fold change /veh LOC730098 (11760151_x_at) / RFU OR4N2 (11742367_at) / Fold change /veh OR4N2 (11742367_at) / RFU PRRT2 (11749266_a_at) / Fold change /veh PRRT2 (11749266_a_at) / RFU SNX32 (11753110_a_at) / Fold change /veh SNX32 (11753110_a_at) / RFU CDHR5 (11726645_a_at) / Fold change /veh CDHR5 (11726645_a_at) / RFU RCAN1 (11760418_a_at) / Fold change /veh RCAN1 (11760418_a_at) / RFU FAM167A (11723789_a_at) / Fold change /veh FAM167A (11723789_a_at) / RFU FAM26E (11764081_at) / Fold change /veh FAM26E (11764081_at) / RFU ISYNA1 (11749810_s_at) / Fold change /veh ISYNA1 (11749810_s_at) / RFU ACY1 (11761880_at) / Fold change /veh ACY1 (11761880_at) / RFU 11764098_at / Fold change /veh 11764098_at / RFU SAMD14 (11745864_x_at) / Fold change /veh SAMD14 (11745864_x_at) / RFU NPB (11741838_a_at) / Fold change /veh NPB (11741838_a_at) / RFU TMPRSS6 (11731388_a_at) / Fold change /veh TMPRSS6 (11731388_a_at) / RFU KRTAP10-2 (11738614_at) / Fold change /veh KRTAP10-2 (11738614_at) / RFU ARHGAP8 /// PRR5-ARHGAP8 (11727945_x_at) / Fold change /veh ARHGAP8 /// PRR5-ARHGAP8 (11727945_x_at) / RFU KRTAP5-7 /// NADSYN1 (11734609_at) / Fold change /veh KRTAP5-7 /// NADSYN1 (11734609_at) / RFU RASL12 (11751679_a_at) / Fold change /veh RASL12 (11751679_a_at) / RFU CDKN2B (11736163_a_at) / Fold change /veh CDKN2B (11736163_a_at) / RFU PRF1 (11729649_at) / Fold change /veh PRF1 (11729649_at) / RFU, ZNF638 /// ZNF638-IT1 / Fold change vs veh, ZNF638 /// ZNF638-IT1 / RFU, PANK3 / Fold change vs veh, PANK3 / RFU, SH3YL1 / Fold change vs veh, SH3YL1 / RFU, ZEB2 / Fold change vs veh, ZEB2 / RFU, NRIP1 / Fold change vs veh, NRIP1 / RFU, PTTG1IP / Fold change vs veh, PTTG1IP / RFU, CAPN2 / Fold change vs veh, CAPN2 / RFU, MED14 / Fold change vs veh, MED14 / RFU, SNORA58 / Fold change vs veh, SNORA58 / RFU, C1orf63 / Fold change vs veh, C1orf63 / RFU, LRRFIP1 / Fold change vs veh, LRRFIP1 / RFU, NDUFAF7 / Fold change vs veh, NDUFAF7 / RFU, SLC12A2 / Fold change vs veh, SLC12A2 / RFU, IBTK / Fold change vs veh, IBTK / RFU, ESF1 / Fold change vs veh, ESF1 / Fold change vs veh, TMEM50B / RFU, TAOK1 / Fold change vs veh, TAOK1 / RFU, ACBD3 / Fold change vs veh, ACBD3 / RFU, TMA16 / Fold change vs veh, TMA16 / RFU, RWDD3 / Fold change vs veh, RWDD3 / RFU, BCAT1 / Fold change vs veh, BCAT1 / RFU, EDEM3 / Fold change vs veh, EDEM3 / RFU, TMEM33 / Fold change vs veh, TMEM33 / RFU, WDR75 / Fold change vs veh, WDR75 / RFU, AHCTF1 / Fold change vs veh, AHCTF1 / RFU, TFRC / Fold change vs veh, TFRC / RFU, ZDHHC17 / Fold change vs veh, ZDHHC17 / RFU, NOM1 / Fold change vs veh, NOM1 / RFU, ARL8B / Fold change vs veh, ARL8B / RFU, ZBTB11 / Fold change vs veh, ZBTB11 / RFU, TAMM41 / Fold change vs veh, TAMM41 / RFU, KIAA1704 /// LOC100996395 / Fold change vs veh, KIAA1704 /// LOC100996395 / RFU, ING1 / Fold change vs veh, ING1 / RFU, TRMT61B / Fold change vs veh, TRMT61B / RFU, FUBP3 / Fold change vs veh, FUBP3 / RFU, TP53 / Fold change vs veh, TP53 / RFU, TNKS2 / Fold change vs veh, TNKS2 / RFU, ZFP14 / Fold change vs veh, ZFP14 / RFU, ACTR2 / Fold change vs veh, ACTR2 / RFU, PPP3R1 / Fold change vs veh, PPP3R1 / RFU, PIK3R1 / Fold change vs veh, PIK3R1 / RFU, HNRNPA1 / Fold change vs veh, HNRNPA1 / RFU, RNF170 / Fold change vs veh, RNF170 / RFU, ZNF28 / Fold change vs veh, ZNF28 / RFU, RNGTT / Fold change vs veh, RNGTT / RFU, OGT / Fold change vs veh, OGT / RFU, BRD1 / Fold change vs veh, BRD1 / RFU, MARS / Fold change vs veh, MARS / RFU, ZNF655 / Fold change vs veh, ZNF655 / RFU, FAHD1 / Fold change vs veh, FAHD1 / RFU, BDP1 / Fold change vs veh, BDP1 / RFU, LRRCC1 / Fold change vs veh, LRRCC1 / RFU, ARID1A / Fold change vs veh, ARID1A / RFU, ZNF146 / Fold change vs veh, ZNF146 / RFU, ZNF330 / Fold change vs veh, ZNF330 / RFU, GPN3 / Fold change vs veh, GPN3 / RFU, C9orf123 / Fold change vs veh, C9orf123 / RFU, N4BP2L2 / Fold change vs veh, N4BP2L2 / RFU, ARFIP1 / Fold change vs veh, ARFIP1 / RFU, FAM179B / Fold change vs veh, FAM179B / RFU, BCL10 / Fold change vs veh, BCL10 / RFU, UHRF1BP1L / Fold change vs veh, UHRF1BP1L / RFU, BET1 / Fold change vs veh, BET1 / RFU, CNOT2 / Fold change vs veh, CNOT2 / RFU, ZNF268 / Fold change vs veh, ZNF268 / Fold change vs veh, ZNF507 / RFU, DGCR2 / Fold change vs veh, DGCR2 / RFU, WDSUB1 / Fold change vs veh, WDSUB1 / Fold change vs veh, HSP90B1 /// MIR3652 / RFU, ADSS / Fold change vs veh, ADSS / RFU, GK / Fold change vs veh, GK / RFU, ZNF148 / Fold change vs veh, ZNF148 / RFU, TAF9 / Fold change vs veh, TAF9 / RFU, SLC1A5 / Fold change vs veh, SLC1A5 / RFU, SLMO2 / Fold change vs veh, SLMO2 / RFU, ABCC4 / Fold change vs veh, ABCC4 / RFU, LOC101060439 /// RAP1B / Fold change vs veh, LOC101060439 /// RAP1B / RFU, RFX7 / Fold change vs veh, RFX7 / RFU, GTPBP10 / Fold change vs veh, GTPBP10 / RFU, CNEP1R1 / Fold change vs veh, CNEP1R1 / RFU, BIVM-ERCC5 /// ERCC5 / Fold change vs veh, BIVM-ERCC5 /// ERCC5 / RFU, ILF3 / Fold change vs veh, ILF3 / RFU 11762660_at / Fold change /veh 11762660_at / RFU VCAN (11757783_s_at) / Fold change /veh VCAN (11757783_s_at) / RFU DDX43 (11728927_at) / Fold change /veh DDX43 (11728927_at) / RFU KRT8 (11758188_x_at) / Fold change /veh KRT8 (11758188_x_at) / RFU NKD1 (11759106_at) / Fold change /veh NKD1 (11759106_at) / RFU SRD5A1 (11742802_a_at) / Fold change /veh SRD5A1 (11742802_a_at) / RFU TPSAB1 /// TPSB2 (11721975_s_at) / Fold change /veh TPSAB1 /// TPSB2 (11721975_s_at) / RFU GSTM3 (11746129_a_at) / Fold change /veh GSTM3 (11746129_a_at) / RFU IL23R (11737362_x_at) / Fold change /veh IL23R (11737362_x_at) / RFU TMEM51 (11727254_a_at) / Fold change /veh TMEM51 (11727254_a_at) / RFU PIWIL2 (11732686_x_at) / Fold change /veh PIWIL2 (11732686_x_at) / RFU ORM1 (11744905_x_at) / Fold change /veh ORM1 (11744905_x_at) / RFU CCDC152 (11743942_at) / Fold change /veh CCDC152 (11743942_at) / RFU ECM1 (11717891_a_at) / Fold change /veh ECM1 (11717891_a_at) / RFU IL23R (11748794_a_at) / Fold change /veh IL23R (11748794_a_at) / RFU TNFAIP8L3 (11732012_x_at) / Fold change /veh TNFAIP8L3 (11732012_x_at) / RFU MBOAT4 (11741988_at) / Fold change /veh MBOAT4 (11741988_at) / RFU 11764193_at / Fold change /veh 11764193_at / RFU TMEM53 (11763286_at) / Fold change /veh TMEM53 (11763286_at) / RFU MAGEB2 (11727129_at) / Fold change /veh MAGEB2 (11727129_at) / RFU TMEM200A (11744735_a_at) / Fold change /veh TMEM200A (11744735_a_at) / RFU CCDC152 (11751479_a_at) / Fold change /veh CCDC152 (11751479_a_at) / RFU FAM211A (11726209_a_at) / Fold change /veh FAM211A (11726209_a_at) / RFU RGS16 (11746705_a_at) / Fold change /veh RGS16 (11746705_a_at) / RFU VCAN (11755009_s_at) / Fold change /veh VCAN (11755009_s_at) / RFU RHOB (11743442_s_at) / Fold change /veh RHOB (11743442_s_at) / RFU RGS16 (11720943_a_at) / Fold change /veh RGS16 (11720943_a_at) / RFU RGS16 (11720944_at) / Fold change /veh RGS16 (11720944_at) / RFU, VPS4B / Fold change vs veh, VPS4B / RFU, CREB1 / Fold change vs veh, CREB1 / RFU, DNAJC13 / Fold change vs veh, DNAJC13 / RFU, GNAQ / Fold change vs veh, GNAQ / RFU, CDK5R1 / Fold change vs veh, CDK5R1 / RFU, ZRANB3 / Fold change vs veh, ZRANB3 / RFU, CUL4A / Fold change vs veh, CUL4A / RFU, CCNY / Fold change vs veh, CCNY / RFU, UFL1 / Fold change vs veh, UFL1 / RFU, COG3 / Fold change vs veh, COG3 / RFU, DIAPH2 / Fold change vs veh, DIAPH2 / RFU, SKA2 / Fold change vs veh, SKA2 / RFU, AFF3 / Fold change vs veh, AFF3 / RFU, LMF1 / Fold change vs veh, LMF1 / RFU, IPO11 / Fold change vs veh, IPO11 / RFU, DFFB / Fold change vs veh, DFFB / RFU, FOXP1 / Fold change vs veh, FOXP1 / RFU, CARD8 / Fold change vs veh, CARD8 / RFU, STRN3 / Fold change vs veh, STRN3 / RFU, ADK / Fold change vs veh, ADK / RFU, RASSF2 / Fold change vs veh, RASSF2 / RFU, WIPF1 / Fold change vs veh, WIPF1 / RFU, LARP1B / Fold change vs veh, LARP1B / RFU, RASA1 / Fold change vs veh, RASA1 / RFU, RB1 / Fold change vs veh, RB1 / RFU, PPFIA1 / Fold change vs veh, PPFIA1 / RFU, MAT2A / Fold change vs veh, MAT2A / RFU, CCT5 / Fold change vs veh, CCT5 / RFU, WDR92 / Fold change vs veh, WDR92 / RFU, CUX1 / Fold change vs veh, CUX1 / RFU, TTC7A / Fold change vs veh, TTC7A / RFU, TMEM135 / Fold change vs veh, TMEM135 / RFU, DEPTOR / Fold change vs veh, DEPTOR / RFU, CPM / Fold change vs veh, CPM / RFU, DNAJB6 / Fold change vs veh, DNAJB6 / RFU, CACNA2D3 / Fold change vs veh, CACNA2D3 / RFU, DTX4 / Fold change vs veh, DTX4 / RFU, TFCP2 / Fold change vs veh, TFCP2 / RFU, GMCL1 /// GMCL1P1 / Fold change vs veh, GMCL1 /// GMCL1P1 / RFU, AEBP2 / Fold change vs veh, AEBP2 / RFU, SNHG1 /// SNORD22 /// SNORD25 /// SNORD26 /// SNORD27 /// SNORD28 /// SNORD29 /// SNORD31 / Fold change vs veh, SNHG1 /// SNORD22 /// SNORD25 /// SNORD26 /// SNORD27 /// SNORD28 /// SNORD29 /// SNORD31 / Fold change (Aza/veh), C12orf56 (ProbeSet 11735607_a_at) / Fold change (ACY-1035/veh), C12orf56 (ProbeSet 11735607_a_at) / Fold change (Aza/veh), FGFR1OP (ProbeSet 11751329_s_at) / Fold change (ACY-1035/veh), FGFR1OP (ProbeSet 11751329_s_at) / Fold change (Aza/veh), VPS36 (ProbeSet 11739960_a_at) / Fold change (ACY-1035/veh), VPS36 (ProbeSet 11739960_a_at) / RFU SYPL1 (11715823_x_at) / Fold change /veh SYPL1 (11715823_x_at) / RFU IGFBP7 (11715501_s_at) / Fold change /veh IGFBP7 (11715501_s_at) / RFU REEP3 (11722064_at) / Fold change /veh REEP3 (11722064_at) / RFU IGLL1 (11728026_x_at) / Fold change /veh IGLL1 (11728026_x_at): dose or concentration left out as unconfirmed", "conditions": "ProbeSet 11732277_a_at; LIST D", "data": [{"smiles": "Nc1ccc(-c2cccs2)cc1NC(=O)c1ccc2c(c1)cc(C1CC1)n2CCN1CCOCC1", "note": "[ACY-1035]", "values": [{"measurement": "Fold change vs veh, FOXP1", "value": 0.94}]}]}
